Measured values as given in patent publication US20260191861A1, “INFLAMMASOME AND VEGF INHIBITION FOR RETINAL VASCULAR DISEASES” (University of Virginia Patent Foundation, priority 2022, published 2026).

Key:
[1] = test system: participants with diabetic macular edema; experiment: Systemic and ocular adverse events in the lamivudine versus placebo trial; assay type: in vivo, human
Description: If the participant developed high-risk proliferative diabetic retinopathy or had to undergo any ocular surgery during the study period, they would be excluded. Patients were monitored for adverse events by the assessing physician, and new laboratory tests could be performed at the physician's discretion.
Secondary outcomes included the change in central subfield thickness, the percentage of eyes with an improvement in VALS of 15 or more, the correlation between improvements in visual acuity and central subfield thickness, and systemic and ocular adverse events. Change in central subfield thickness was estimated using mixed-effects models, similar to the VALS analysis. To analyze a VALS improvement of at least 15 letters, logistic regression using generalized estimating equations (GEEs) was specified with an exchangeable correlation matrix. Model-based contrasts were estimated to make pairwise treatment comparisons.

caspase-1 = experiment: Rhegmatogenous retinal detachment (RRD) model: retinal caspase-1 cleavage by immunoblot; assay type: in vivo, mouse; conditions: day 3 RRD, equimolar IP doses twice daily (K-9H 60 mg/kg, 3TC 50 mg/kg)
Protocol: All experiments involving animals were approved by the University of Virginia Institutional Animal Care and Use Committee (IACUC) and adhered to the Association for Research in Vision and Ophthalmology (ARVO) Statement for the Use of Animals in Ophthalmic and Vision Research. Animal subjects were male and female mice aged 6 to 10 weeks. Wild type C57BL/6J mice were obtained from the Jackson Laboratory (Bar Harbor, ME, USA). To anesthetize mice for study procedures, ketamine hydrochloride (100 mg/kg; Ft. Dodge Animal Health, Overland Park, KS, USA) and xylazine (10 mg/kg; Phoenix Scientific, St. Joseph, MO, USA) were delivered by intraperitoneal (IP) injection. Pupils were dilated with topical 1% tropicamide and 2.5% phenylephrine (Alcon Laboratories, Ft. Worth, TX, USA).
RRD model was established by subretinal injection (SRI) of 3 μl 1% carboxymethyl cellulose (CMC; Refresh Liquigel, Allergan, Irvine, CA, USA).
NRTIs and K-9 were delivered via intraperitoneal (IP) injection in equimolar amounts. […] Kamuvudine K-9 (3-methyl-3TC, MW=273 g/mol) was administered either at a low dose (K-9L; 90 mg/kg daily) or a high dose (K-9H; 60 mg/kg twice daily, equimolar to NRTI doses). IP injection of phosphate buffered saline (PBS) was used as control.
Retinal tissue was extracted and lysed by sonication in radioimmunoprecipitation assay (RIPA) buffer (MilliporeSigma, Darmstadt, Germany). The Pierce BCA Protein Assay Kit (ThermoFisher Scientific, Waltham, MA, USA) was used to determine protein concentrations of interest. Samples were prepared that contained equal concentrations of total protein (10-100 μg). Protein samples were resolved by SDS-PAGE and transferred onto Immobilon-FL PVDF membranes (Millipore, Billerica, MA, USA). Membranes were blocked in Odyssey Blocking Buffer (PBS) for 1 hour at room temperature, and then incubated overnight with primary antibody at 4° C. Across study experiments, the following antibodies were used: anti-mouse caspase-1 (1:1000; AG-20B-0042; AdipoGen Life Sciences, San Diego, CA, USA), and anti-mouse GAPDH (1:1000; 2118; Cell Signaling, Danvers, MA, USA). […]

[2] = ocular adverse event, of 16 eyes
[3] = systemic adverse event, of 10 subjects

SMILES: Nc1ccn([C@@H]2CS[C@H](CO)O2)c(=O)n1 [Lamivudine]
- Endophthalmitis - (%) [1, 2]: (0%)
- Endophthalmitis - N [1, 2]: 0
- Increase in intraocular pressure ≥10 mm Hg from baseline - (%) [1, 2]: (0%)
- Increase in intraocular pressure ≥10 mm Hg from baseline - N [1, 2]: 0
- Intraocular inflammation* - (%) [1, 2]: (0%)
- Intraocular inflammation* - N [1, 2]: 0
- Retinal detachment - (%) [1, 2]: (0%)
- Retinal detachment - N [1, 2]: 0
- Subconjunctival hemorrhage - (%) [1, 2]: (18.8%)
- Subconjunctival hemorrhage - N [1, 2]: 3
- Traumatic cataract - (%) [1, 2]: (0%)
- Traumatic cataract - N [1, 2]: 0
- Vitreous hemorrhage - (%) [1, 2]: (0%)
- Vitreous hemorrhage - N [1, 2]: 0
- Abdominal pain - (%) [1, 3]: (0%)
- Abdominal pain - N [1, 3]: 0
- Alopecia - (%) [1, 3]: (0%)
- Alopecia - N [1, 3]: 0
- Arthralgia - (%) [1, 3]: (0%)
- Arthralgia - N [1, 3]: 0
- Diarrhea - (%) [1, 3]: (10%)
- Diarrhea - N [1, 3]: 1
- Disphoresis - (%) [1, 3]: (10%)
- Disphoresis - N [1, 3]: 1
- Fatigue - (%) [1, 3]: (10%)
- Fatigue - N [1, 3]: 1
- Headache - (%) [1, 3]: (20%)
- Headache - N [1, 3]: 2
- Myalgia - (%) [1, 3]: (0%)
- Myalgia - N [1, 3]: 0
- Nausea or vomiting - (%) [1, 3]: (20%)
- Nausea or vomiting - N [1, 3]: 2
- Pruritus - (%) [1, 3]: (20%)
- Pruritus - N [1, 3]: 2
- Skin rash - (%) [1, 3]: (0%)
- Skin rash - N [1, 3]: 0
- ocular adverse events ([1]; week 4): no ocular adverse events
- subconjunctival hemorrhage after intravitreous injection ([1]; week 8): three
- degree of suppression of caspase-1 activation (caspase-1): 52%+8%
